Measurements from patent publication US20240392302A1, “METHOD FOR DETECTING AND QUANTIFYING RNA” (FLUORESCENCE DIAGNOSIS (SHANGHAI) BIOTECH COMPANY LTD., priority 2021, published 2024).

System: F30-N16-1 RNA aptamer molecules
Assay: Binding of F30-N16-1 RNA aptamer molecules with different fluorescent molecules (fluorescence spectrum, activation multiple)
Type: biochemical
Conditions: for Maximum emission peak (nm) / Maximum excitation peak (nm): complex with F30-N16-1; for Activation Multiple: fluorophore with F30-N16-1
Experimental: Nucleic acid aptamer molecules of N16 or N16 mutants were prepared by using the commonly-used experimental method (I), 2.5 μM of nucleic acid aptamer molecules and 0.5 μM of fluorophore molecules were incubated in a detection buffer (40 mM of HEPES, pH 7.4, 125 mM of KCl, 5 mM of MgCl2, 5% DMSO), and the maximum excitation peak and the maximum emission peak of the fluorescence of the nucleic acid aptamer-fluorophore molecular complex were detected with Synergy Neo2 multifunctional enzyme-labeler. Synergy Neo2 multifunctional enzyme-labeler was used again to detect fluorescence intensity of the nucleic acid aptamer-fluorophore molecular complex under its maximum excitation and emission conditions, the control sample ([…] of fluorophore molecules without nucleic acid aptamer) was also measured under the same conditions, and the ratio of fluorescence intensity was calculated. For example, as for fluorescence of the complex formed by 2.5 μM of N16-1 nucleic acid aptamer and 0.5 μM of I-5-14 fluorophore molecules, the maximum excitation peak is 512 nm and the maximum emission peak is 574 nm. It was detected by the Synergy Neo2 multifunctional enzyme-labeler that the fluorescence intensity of the complex at an excitation condition of 512±10 nm and an emission condition of 574 nm±10 nm was 49,088, while the fluorescence intensity of the control (0.5 μM of I-5-14 fluorophore molecules) under the same detection conditions was 399, so the activation multiple of N16-1 nucleic acid aptamer to I-5-14 fluorophore molecules was 123.
F30-N16-1 RNA aptamer molecules were prepared by using the commonly-used experimental method (I), and were used for detecting basic properties, including fluorescence spectrum and fluorescence activation multiple, of the binding of I-5-14 analogues with N16.

Row | SMILES | Maximum emission peak (nm) | Maximum excitation peak (nm) | Activation Multiple
1 | CN(CCO)c1cc2c(s1)-c1sc(/C=C3\SC(=S)NC3=S)cc1C2(C)C [I-5-82] | 801 | 748 | 3
2 | CN(C)c1ccc(/C=C2\NC(=S)NC2=O)s1 [I-5-12] | 555 | 535 | 11
3 | CN(CCO)c1cc2sc(/C=C3\SC(=O)NC3=S)cc2s1 [I-5-56] | 627 | 568 | 12
4 | CN(C)c1ccc(/C=C2\SC(=S)N(CCC(=O)O)C2=O)cc1 [I-5-20] | 565 | 493 | 22
5 | CN(CCO)c1ccc2nc(/C=C3\SC(=S)N(CCC(=O)O)C3=O)sc2c1 [I-5-70] | 686 | 556 | 12
6 | CN(CCNS(C)(=O)=O)c1ccc(/C=C2\SC(=O)NC2=S)s1 [I-5-3] | 580 | 550 | 14
7 | CN(CCOC(=O)CCOCCO)c1ccc(/C=C2\SC(=S)NC2=O)c(Br)c1 [I-5-26] | 567 | 497 | 21
8 | CN(CCO)c1cc2c(s1)-c1sc(/C=C3\SC(=S)NC3=O)cc1C2(C)C [I-5-83] | 733 | 685 | 4
9 | CN(CCO)c1ccc(/C=C2\OC(=O)NC2=O)s1 [I-5-1] | 500 | 460 | 14
10 | CN(C)c1cc2sc(/C=C3\SC(=S)NC3=S)cc2s1 [I-5-52] | 725 | 686 | 7
11 | CN(CCO)c1ccc2cc(/C=C3\SC(=O)NC3=O)sc2c1 [I-5-65] | 605 | 462 | 35
12 | CN(C)c1cc2sc(/C=C3\SC(=O)NC3=O)cc2s1 [I-5-53] | 593 | 518 | 1281
13 | CN(CCO)c1ccc2cc(/C=C3\SC(=S)NC3=S)sc2c1 [I-5-66] | 748 | 666 | 81
14 | CN(CCO)c1ccc2nc(/C=C3\NC(=S)NC3=O)sc2c1 [I-5-69] | 661 | 531 | 11
15 | CC1=CC(C)(C)N(C)c2ccc(/C=C3\NC(=S)NC3=O)cc21 [I-5-45] | 595 | 497 | 11
16 | O=C1NC(=S)N/C1=C\c1ccc(N(CCO)CCO)s1 [I-5-6] | 550 | 536 | 23
17 | CC1(C)c2cc(/C=C3\SC(=S)NC3=O)ccc2-c2ccc(N(CCO)CCO)cc21 [I-5-73] | 731 | 681 | 12
18 | CN1C(=O)/C(=C/c2ccc3c(c2)CCCN3C)NC1=S [I-5-40] | 548 | 473 | 8
